The values below come from patent US8710095B2, “Drugs for prophylaxis or mitigation of taxane-induced neurotoxicity” (Bionumerik Pharmaceuticals, Inc., priority 2002, dated 2014).

Entries after “also recorded” stand apart in the source; their conditions may differ.

The test system of assay [1] is patients with advanced solid tumors. Kind of assay: Phase I study in the United States: 2,2′-dithiobis ethane sulfonate with paclitaxel and cisplatin, incidence of neurotoxicity. In kind it is in vivo, human. The following applies: United States (n = 36), all doses 4.1 to 41.0 g/m^2. The protocol: In the Phase I study in the United States, human patients in Stage I received the following treatment regimen every 3 weeks: a single dose of paclitaxel (175 mg/m^2) administered intravenously over 3 hours, pre-cisplatin saline hydration (1000 mL 0.9% NaCl) for 2 hours, followed immediately by a single dose of 2,2′-dithiobis ethane sulfonate (4.1, 8.2, 12.3, 18.4, 27.6 and 41.0 g/m^2, depending on cohort assignment) administered intravenously over 15 or 30 minutes, a single dose of cisplatin (75 mg/m^2) administered intravenously over 1 hour and subsequently post-cisplatin saline hydration (500 cc 0.9% NaCl) for 1 hour.
A total of 36 patients (22 patients in Stage I and 14 patients in Stage II) with advanced solid tumors have been enrolled and treated in this study at two clinical sites in the United States. A total of 138 treatment courses of BNP7787 with chemotherapy were given to 36 patients giving an average number of 3.8 treatment cycles per patient. A total of 13 patients (36.1%) completed at least five treatment cycles while 5 patients (13.9%) completed at least seven treatment cycles.
The number and percentage of patients who reported neurotoxicity in the Phase I studies compared with historical control data are summarized on the next page. Severity grades were measured according to NCI-CTC standards.

A further assay concerns cancer patients. Kind of assay: Individual patient cases (Examples 2 to 7): BNP7787 with paclitaxel and cisplatin. In kind it is in vivo, human. The following applies: for tumor response: with paclitaxel and cisplatin; for peripheral neurotoxicity: 3 cycles. The protocol:
A patient with adenocarcinoma of unknown origin presented with a pituitary mass and supraclavicular and mediastinal lymph nodes. They received the following treatment regimen every 3 weeks: a single dose of paclitaxel (175 mg/m^2) administered IV over 3 hours, pre-cisplatin saline hydration (500 mL 0.9% NaCl) for 1 hour, a single dose of BNP7787 (18.4 g/m^2) administered IV over 15 minutes, immediately followed by a single dose of cisplatin (75 mg/m^2) administered IV over 1 hour and subsequently post-cisplatin saline hydration (250 mL 0.9% NaCl) for 30 minutes. The patient received a total of six cycles of study treatment and experienced peripheral neuropathy (NCI-CTC Grade 2) during Cycles 4 through 6.
A patient with adenocarcinoma of gastric origin received the following treatment regimen every 3 weeks: a single dose of paclitaxel (175 mg/m^2) administered IV over 3 hours, pre-cisplatin saline hydration (500 mL 0.9% NaCl) for 1 hour, a single dose of BNP7787 (18.4 g/m^2) administered IV over 15 minutes, immediately followed by a single dose of cisplatin (75 mg/m^2) administered IV over 1 hour and subsequently post-cisplatin saline hydration (250 mL 0.9% NaCl) for 30 minutes.
A patient with adenocarcinoma of unknown origin presented with retroperitoneal and lung masses. They received the following treatment regimen every 3 weeks: a single dose of paclitaxel (175 mg/m^2) administered IV over 3 hours, pre-cisplatin saline hydration (250 mL 0.9% NaCl) for 30 minutes, a single dose of BNP7787 (18.4 g/m^2) administered IV over 15 minutes, immediately followed by a single dose of cisplatin (75 mg/m^2) administered IV over 1 hour and subsequently post-cisplatin saline hydration (250 mL 0.9% NaCl) for 30 minutes. The patient received a total of six cycles of study treatment and experienced Grade 1 numbness and tingling (peripheral neuropathy) beginning Day 2 of Cycle 1 which resolved on Day 5. The patient again experienced Grade 1 peripheral neuropathy during Cycle 4.
(§1) A patient with adenocarcinoma of the lung received the following treatment regimen every 3 weeks: a single dose of paclitaxel (175 mg/m^2) administered IV over 3 hours, pre-cisplatin saline hydration for 1 hour, immediately followed by a single dose of BNP7787 (18.4 g/m^2) administered IV over 30 minutes, a single dose of cisplatin (75 mg/m^2) administered IV over 1 hour and subsequently post-cisplatin saline hydration for 1.5 hours.
as §1, with “hours. The patient received a total of 3 cycles of study treatment and experienced Grade 1 peripheral neurotoxicity beginning on Day 6 of Cycle 3, which resolved on Day 20 of Cycle 3.” for “hours.”
A patient with large cell carcinoma of the lung received the following treatment regimen every 3 weeks: a single dose of paclitaxel (175 mg/m^2) administered IV over 3 hours, pre-cisplatin saline hydration for 1 hour, immediately followed by a single dose of BNP7787 (18.4 g/m^2) administered IV over 30 minutes, a single dose of cisplatin (75 mg/m^2) administered IV over 1 hour and subsequently post-cisplatin saline hydration for 1.5 hours. The patient received a total of 3 cycles of study treatment and experienced Grade 1 peripheral neurotoxicity beginning on Day 5 of Cycle 2.

With `O=S(=O)([O-])CCSSCCS(=O)(=O)[O-].[Na+].[Na+]` [2,2′-dithiobis ethane sulfonate], the “Incidence of neurotoxicity, Neurotoxicity Grade (NCI-CTC) 1” value in assay [1] is 8 (22.2) Number (%) of Patients. Besides, in assay [1], the “Incidence of neurotoxicity, Neurotoxicity Grade (NCI-CTC) 2” value is recorded as 8 (22.2) Number (%) of Patients. Besides, the “Incidence of neurotoxicity, Neurotoxicity Grade (NCI-CTC) 3” value in assay [1] was 0 (0.0) Number (%) of Patients. In assay [1], the “Incidence of neurotoxicity, Neurotoxicity Grade (NCI-CTC) 4” value was 0 (0.0) Number (%) of Patients. Also, in assay [1], the “Incidence of neurotoxicity, Neurotoxicity Grade (NCI-CTC) ≧2” value is 8 (22.2) Number (%) of Patients. Besides, in assay [1], the “Incidence of neurotoxicity, Overall (all grades)” value is on record as 16 (44.0) Number (%) of Patients. Moreover, the tumor response entry is given as “complete response” in the assay with cancer patients (Example 2: after Cycle 2, confirmed after Cycles 4 and 6); “stable disease; also recorded: progressive disease” with cancer patients (Example 3: stable Cycles 2 through 4, progression following Cycle 5, listed as BNP7787); “partial response; also recorded: complete response” in the assay on cancer patients (Example 4: partial after Cycle 2, complete after Cycle 6, listed as BNP7787); “partial response” in the assay with cancer patients (Example 5: after Cycles 2 and 3); “partial response” in the assay on cancer patients (Example 6: after Cycles 2 and 3); “stable disease” in the assay on cancer patients (Example 7). Moreover, the “peripheral neuropathy (NCI-CTC)” value with cancer patients (Example 2: person, adenocarcinoma of unknown origin, 18.4 g/m^2, six cycles, during Cycles 4 through 6) is listed as “Grade 2”. Besides, the peripheral neuropathy entry with cancer patients (Example 3: person, adenocarcinoma of gastric origin, 18.4 g/m^2, five cycles) is on record as “no peripheral neuropathy”. In the assay on cancer patients (Example 4: person, adenocarcinoma of unknown origin, 18.4 g/m^2, six cycles, Cycle 1 Day 2 to 5 and Cycle 4), the “peripheral neuropathy (numbness and tingling)” value is given as “Grade 1”. Moreover, the peripheral neurotoxicity entry in the assay on cancer patients (Example 5: person, adenocarcinoma of the lung, 18.4 g/m^2) is reported as “no peripheral neurotoxicity”; in the assay on cancer patients (Example 6: person, adenocarcinoma of the lung, 18.4 g/m^2, Day 6 to Day 20 of Cycle 3), “Grade 1”; in the assay on cancer patients (Example 7: person, large cell carcinoma of the lung, 18.4 g/m^2, beginning Day 5 of Cycle 2), “Grade 1”.
